Where two headings read alike, the source gives them in different places.
Legend:
Format in all cases: in vivo
[1] = test system: Surinam grass (Brachiaria decumbens); assay: Test B pre/postemergence; settings: Urochloa decumbens; for pest or weed control at 125 g/ha: 125 g ai/ha; for pest or weed control at 62 g/ha: 62 g ai/ha
Outline: (§1)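 Pre: compound (non-phytotoxic solvent + surfactant) applied to freshly planted seeds. Post: same formulation sprayed on 2–18 cm plants, 1- to 4-leaf. Readout: visual control rating 0–100 vs controls, 13–15 d, greenhouse.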

[2] = test system: barnyardgrass (Echinochloa crus-galli); assay: Test B pre/postemergence; settings: Echinochloa crus-galli, scale 0 to 100 (0 no effect, 100 complete control); for pest or weed control at 62 g/ha: 62 g ai/ha; for pest or weed control at 125 g/ha: 125 g ai/ha
Outline: as §1

[3] = test system: cocklebur (Xanthium strumarium); assay: Test B pre/postemergence; settings: Xanthium strumarium; for pest or weed control at 125 g/ha: 125 g ai/ha, scale 0 to 100 (0 no effect, 100 complete control)
Outline: as §1

corn (Zea mays) = assay: Test B pre/postemergence; settings: Zea mays
Outline: as §1

[4] = test system: crabgrass (Digitaria sanguinalis); assay: Test B pre/postemergence; settings: Digitaria sanguinalis; for pest or weed control at 62 g/ha: 62 g ai/ha; for pest or weed control at 125 g/ha: 125 g ai/ha
Outline: as §1

[5] = test system: giant foxtail (Setaria faberii); assay: Test B pre/postemergence; settings: Setaria faberi; for pest or weed control at 125 g/ha: 125 g ai/ha; for pest or weed control at 62 g/ha: 62 g ai/ha
Outline: as §1

[6] = test system: lambsquarters (Chenopodium album); assay: Test B pre/postemergence; settings: Chenopodium album; for pest or weed control at 62 g/ha: 62 g ai/ha; for pest or weed control at 125 g/ha: 125 g ai/ha
Outline: as §1

[7] = test system: morningglory (Ipomoea coccinea); assay: Test B pre/postemergence; settings: Ipomoea; for pest or weed control at 62 g/ha: 62 g ai/ha; for pest or weed control at 125 g/ha: 125 g ai/ha
Outline: as §1

[8] = test system: pigweed (Amaranthus retroflexus); assay: Test B pre/postemergence; settings: Amaranthus retroflexus; for pest or weed control at 62 g/ha: 62 g ai/ha; for pest or weed control at 125 g/ha: 125 g ai/ha
Outline: as §1

[9] = test system: velvetleaf (Abutilon theophrasti); assay: Test B pre/postemergence; settings: Abutilon theophrasti; for pest or weed control at 62 g/ha: 62 g ai/ha; for pest or weed control at 125 g/ha: 125 g ai/ha
Outline: as §1

[10] = test system: wheat (Triticum aestivum); assay: Test B pre/postemergence; settings: Triticum aestivum, scale 0 to 100 (0 no effect, 100 complete control); for plant injury at 62 g/ha: 62 g ai/ha; for plant injury at 125 g/ha: 125 g ai/ha
Outline: as §1

[11] = test system: blackgrass (Alopecurus myosuroides); assay: Test B postemergence; settings: Alopecurus myosuroides, post-emergence, scale 0 to 100 (0 no effect, 100 complete control), read-out: Blackgrass plant response rating
Outline: as §1

wild oat (Avena fatua) = assay: Test B postemergence; settings: Avena fatua, post-emergence, scale 0 to 100 (0 no effect, 100 complete control), read-out: Oat, Wild plant response rating
Outline: as §1

[12] = test system: barnyardgrass (Echinochloa crus-galli); assay: Test B flooded paddy test; settings: Echinochloa crus-galli, Flood, scale 0 to 100, read-out: Plant response rating, Barnyardgrass
Outline: (§2)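 Rice, umbrella sedge, duck salad and barnyardgrass grown to 2-leaf stage under flooded paddy conditions and treated with formulated test chemicals. Kept in greenhouse 13–15 days, then visually rated against untreated controls on a 0–100 scale (0 no effect, 100 complete control).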

[13] = test system: duck salad (Heteranthera limosa); assay: Test B flooded paddy test; settings: Heteranthera limosa, Flood, scale 0 to 100, read-out: Plant response rating, Ducksalad
Outline: as §2

rice (Oryza sativa) = assay: Test B flooded paddy test; settings: Oryza sativa, Flood, scale 0 to 100, read-out: Plant response rating, Rice
Outline: as §2

[14] = test system: umbrella sedge (Cyperus difformis); assay: Test B flooded paddy test; settings: Cyperus difformis, Flood, scale 0 to 100, read-out: Plant response rating, Sedge, Umbrella
Outline: as §2

[15] = post-emergence, Postemergence, scale 0 to 100 (0 no effect, 100 complete control), read-out: Surinam Grass plant response rating
[16] = post-emergence, Postemergence, read-out: Barnyardgrass plant response rating
[17] = pre-emergence, Preemergence, read-out: Plant response rating, Barnyardgrass
[18] = post-emergence, Postemergence, scale 0 to 100 (0 no effect, 100 complete control), read-out: Crabgrass plant response rating
[19] = post-emergence, Postemergence, scale 0 to 100 (0 no effect, 100 complete control), read-out: Foxtail, Giant plant response rating
[20] = post-emergence, Postemergence, scale 0 to 100 (0 no effect, 100 complete control), read-out: Lambsquarters plant response rating
[21] = post-emergence, Postemergence, scale 0 to 100 (0 no effect, 100 complete control), read-out: Morningglory plant response rating
[22] = post-emergence, Postemergence, scale 0 to 100 (0 no effect, 100 complete control), read-out: Pigweed plant response rating
[23] = post-emergence, Postemergence, scale 0 to 100 (0 no effect, 100 complete control), read-out: Velvetleaf plant response rating
[24] = post-emergence, Postemergence, read-out: Wheat plant response rating
[25] = pre-emergence, Preemergence, read-out: Plant response rating, Wheat

CNc1nc(C2CC2)nc(C(=O)OC)c1Cl [Compound 79]
0%: pest or weed control at 125 g/ha ([1]; pre-emergence, Preemergence, scale 0 to 100 (0 no effect, 100 complete control), read-out: Plant response rating, Surinam Grass) | pest or weed control at 62 g/ha ([1]; pre-emergence, Preemergence, scale 0 to 100, 0 no effect, 100 complete control, read-out: Plant response rating, Surinam Grass) | pest or weed control at 62 g/ha [2, 17] | pest or weed control at 62 g/ha ([4]; pre-emergence, Preemergence, scale 0 to 100, 0 no effect, 100 complete control, read-out: Plant response rating, Crabgrass) | pest or weed control at 62 g/ha ([5]; pre-emergence, Preemergence, scale 0 to 100, 0 no effect, 100 complete control, read-out: Plant response rating, Foxtail, Giant) | plant injury at 62 g/ha [10, 24] | plant injury at 62 g/ha [10, 25] | pest or weed control at 125 g/ha ([12]; 125 g ai/ha) | pest or weed control at 500 g/ha ([12]; 500 g ai/ha) | plant injury at 125 g/ha (rice (Oryza sativa); 125 g ai/ha) | pest or weed control at 125 g/ha ([14]; 125 g ai/ha) | pest or weed control at 500 g/ha ([14]; 500 g ai/ha)
20%: pest or weed control at 62 g/ha [1, 15] | plant injury at 62 g/ha (corn (Zea mays); post-emergence, Postemergence, 62 g ai/ha, scale 0 to 100 (0 no effect, 100 complete control), read-out: Corn plant response rating) | pest or weed control at 125 g/ha ([5]; pre-emergence, Preemergence, scale 0 to 100 (0 no effect, 100 complete control), read-out: Plant response rating, Foxtail, Giant) | pest or weed control at 62 g/ha ([11]; 62 g ai/ha) | plant injury at 500 g/ha (rice (Oryza sativa); 500 g ai/ha)
90%: pest or weed control at 62 g/ha [6, 20] | pest or weed control at 62 g/ha ([6]; pre-emergence, Preemergence, scale 0 to 100, 0 no effect, 100 complete control, read-out: Plant response rating, Lambsquarters) | pest or weed control at 125 g/ha ([6]; pre-emergence, Preemergence, scale 0 to 100 (0 no effect, 100 complete control), read-out: Plant response rating, Lambsquarters) | pest or weed control at 62 g/ha [7, 21] | pest or weed control at 125 g/ha ([7]; pre-emergence, Preemergence, scale 0 to 100 (0 no effect, 100 complete control), read-out: Plant response rating, Morningglory)
10%: pest or weed control at 125 g/ha ([13]; 125 g ai/ha)
80%: pest or weed control at 125 g/ha [2, 16] | pest or weed control at 125 g/ha ([3]; pre-emergence, Preemergence, read-out: Plant response rating, Cocklebur) | pest or weed control at 62 g/ha [8, 22] | pest or weed control at 62 g/ha ([8]; pre-emergence, Preemergence, scale 0 to 100, 0 no effect, 100 complete control, read-out: Plant response rating, Pigweed) | pest or weed control at 125 g/ha [9, 23] | pest or weed control at 125 g/ha ([9]; pre-emergence, Preemergence, scale 0 to 100 (0 no effect, 100 complete control), read-out: Plant response rating, Velvetleaf)
70%: pest or weed control at 125 g/ha [2, 17] | pest or weed control at 125 g/ha ([4]; pre-emergence, Preemergence, scale 0 to 100 (0 no effect, 100 complete control), read-out: Plant response rating, Crabgrass) | pest or weed control at 125 g/ha [5, 19] | pest or weed control at 62 g/ha ([7]; pre-emergence, Preemergence, scale 0 to 100, 0 no effect, 100 complete control, read-out: Plant response rating, Morningglory) | pest or weed control at 500 g/ha ([13]; 500 g ai/ha)
40%: pest or weed control at 62 g/ha [5, 19] | plant injury at 125 g/ha [10, 24] | pest or weed control at 125 g/ha (wild oat (Avena fatua); 125 g ai/ha)
50%: pest or weed control at 62 g/ha [2, 16] | pest or weed control at 62 g/ha ([3]; pre-emergence, Preemergence, 62 g ai/ha, scale 0 to 100, 0 no effect, 100 complete control, read-out: Plant response rating, Cocklebur) | pest or weed control at 62 g/ha [9, 23] | pest or weed control at 62 g/ha ([9]; pre-emergence, Preemergence, scale 0 to 100, 0 no effect, 100 complete control, read-out: Plant response rating, Velvetleaf) | pest or weed control at 125 g/ha ([11]; 125 g ai/ha)
60%: pest or weed control at 125 g/ha [1, 15] | pest or weed control at 125 g/ha ([3]; post-emergence, Postemergence, read-out: Cocklebur plant response rating) | plant injury at 125 g/ha (corn (Zea mays); post-emergence, Postemergence, 125 g ai/ha, scale 0 to 100 (0 no effect, 100 complete control), read-out: Corn plant response rating) | Corn plant response rating (crop injury, 0 = no effect, 100 = complete kill) at 125 g/ha (corn (Zea mays); pre-emergence, Preemergence, 125 g ai/ha, scale 0 to 100 (0 no effect, 100 complete control)) | pest or weed control at 125 g/ha [4, 18] | plant injury at 125 g/ha [10, 25]
100%: pest or weed control at 125 g/ha [6, 20] | pest or weed control at 125 g/ha [7, 21] | pest or weed control at 125 g/ha [8, 22] | pest or weed control at 125 g/ha ([8]; pre-emergence, Preemergence, scale 0 to 100 (0 no effect, 100 complete control), read-out: Plant response rating, Pigweed)
30%: Corn plant response rating (crop injury, 0 = no effect, 100 = complete kill) at 62 g/ha (corn (Zea mays); pre-emergence, Preemergence, 62 g ai/ha, scale 0 to 100, 0 no effect, 100 complete control) | pest or weed control at 62 g/ha [4, 18] | pest or weed control at 62 g/ha (wild oat (Avena fatua); 62 g ai/ha)

— patent publication US8802597B2, “Herbicidal pyrimidines” (E I du Pont de Nemours and Company, priority 2003, dated 2014)
